In ChEMBL document CHEMBL1201862, “PubChem BioAssay data set” (2004):
Where “and” joins values, the source holds several entries; their conditions need not be identical. Equal values may be shown once.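 Exposure lasted 48 hours, with cells grown in 96-well plates and compounds tested at five concentrations. The concentration for 50% growth inhibition is given as GI50.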 Calls of active or inactive are those of the source. Cut-off read from the data, not from the text of the source: active = GI50 up to about 1.1 µM and inactive = higher.

Experiments:
Test in all cases: inhibition of tumour cell growth, NCI panel, 48 h
[1] = tested on: DMS-114
[2] = tested on: HCC 2998
[3] = tested on: HL-60
[4] = tested on: HOP-92
[5] = tested on: IGROV-1
[6] = tested on: K562
[7] = tested on: KM12
[8] = tested on: LOX IMVI
[9] = tested on: LXFL 529
[10] = tested on: MOLT-4
[11] = tested on: OVCAR-3
[12] = tested on: RPMI-8226
[13] = tested on: SNB-75
[14] = tested on: SW-620
[15] = tested on: TK-10
[16] = tested on: UACC-257

Row | Compound | GI50 [1] | GI50 [2] | GI50 [3] | GI50 [4] | GI50 [5] | GI50 [6] | GI50 [7] | GI50 [8] | GI50 [9] | GI50 [10] | GI50 [11] | GI50 [12] | GI50 [13] | GI50 [14] | GI50 [15] | GI50 [16]
1 | NC(=O)/C(=N\NC(=O)C[n+]1ccccc1)C1NC(=O)NC1=O (configuration not stated) | > 100 µM (inactive) | > 100 µM (inactive) | > 100 µM (inactive) | > 100 µM (inactive) | > 100 µM (inactive) | > 100 µM (inactive) | > 100 µM (inactive) | > 100 µM (inactive) | > 100 µM (inactive) | > 100 µM (inactive) | > 100 µM (inactive) | > 100 µM (inactive) | > 100 µM (inactive) | 33.6 µM (inactive) | > 100 µM (inactive) | > 100 µM (inactive)
2 | C[C@]12CCC3[C@@H](CC[C@@H]4c5nonc5CC[C@]34C)C1CC[C@@H]2O (some centres not stated) | 29.2 µM (inactive) | 31.8 µM (inactive) | 18.3 µM (inactive) | 23 µM (inactive) | 41.8 µM (inactive) | 34.3 µM (inactive) | 37.8 µM (inactive) | 19.6 µM (inactive) | 37 µM (inactive) | 23.3 µM (inactive) | 21.1 µM (inactive) | 14.5 µM (inactive) | 27.2 µM (inactive) | 29.3 µM (inactive) | 29.5 µM (inactive) | 19.8 µM (inactive)
3 | COc1cc(/C=C2\NC(=S)C3Cc4c(OC)c(C)c(OC)c(OC)c4C2N3C)c(OC)c(C)c1OC (configuration not stated) | 27.5 µM (inactive) | 69 µM (inactive) | 25.2 µM (inactive) | 9.38 µM (inactive) | > 100 µM (inactive) | 49.4 µM (inactive) | 92.9 µM (inactive) | 48 µM (inactive) | 28.8 µM (inactive) | 21.2 µM (inactive) | 31 µM (inactive) | 25.6 µM (inactive) | > 100 µM (inactive) | 59.4 µM (inactive) | 46 µM (inactive) | 22.2 µM (inactive)
4 | Cc1ccccc1/N=N/c1c(-c2ccccc2)nn(C(=O)CC(=O)Nc2cccc(Cl)c2)c1-c1ccccc1 | 14.9 µM (inactive) | 22.2 µM (inactive) | 17.3 µM (inactive) | 26.3 µM (inactive) | > 31.6 µM (inactive) | 16.8 µM (inactive) | – | 15.3 µM (inactive) | 21.6 µM (inactive) | 13 µM (inactive) | 18.5 µM (inactive) | 12.1 µM (inactive) | 28.2 µM (inactive) | 3.16 µM (inactive) | 0.27 µM (active) | 0.247 µM (active)
5 | COc1cc2c(cc1OC)[C@H]1C(COC(=O)c3ccccc3)CS/C(=N/c3ccccc3)N1CC2 (some centres not stated) | 17.1 µM (inactive) | > 100 µM (inactive) | 5.31 µM (inactive) | 8.17 µM (inactive) | > 100 µM (inactive) | – | > 100 µM (inactive) | 92.9 µM (inactive) | 24.4 µM (inactive) | 2.91 µM (inactive) | > 100 µM (inactive) | 4.33 µM (inactive) | 27.7 µM (inactive) | > 100 µM (inactive) | 81.1 µM (inactive) | > 100 µM (inactive)
6 | C1=Cc2nc1c(-c1ccncc1)c1ccc([n-]1)c(-c1ccncc1)c1nc(c(-c3ccncc3)c3ccc([n-]3)c2-c2ccncc2)C=C1.[Zn+2] | > 100 µM (inactive) | > 100 µM (inactive) | > 100 µM (inactive) | > 100 µM (inactive) | > 100 µM (inactive) | > 100 µM (inactive) | > 100 µM (inactive) | > 100 µM (inactive) | > 100 µM (inactive) | > 100 µM (inactive) | > 100 µM (inactive) | > 100 µM (inactive) | > 100 µM (inactive) | > 100 µM (inactive) | > 100 µM (inactive) | > 100 µM (inactive)
7 | O=c1ncccn1[C@@H]1O[C@H](CO)[C@@H](O)[C@@H]1F | > 100 µM (inactive) and > 58.7 µM (inactive) | > 100 µM (inactive) | > 100 µM (inactive) | > 100 µM (inactive) | > 100 µM (inactive) | – | – | > 100 µM (inactive) and > 59.2 µM (inactive) | > 100 µM (inactive) | > 100 µM (inactive) | > 100 µM (inactive) | > 100 µM (inactive) | > 100 µM (inactive) and > 50.9 µM (inactive) | – | > 100 µM (inactive) and > 69.5 µM (inactive) | > 100 µM (inactive)
